Source: patent publication US20230248741A1, “Compositions and Methods for Lowering Triglycerides in a Subject with Reduced Kidney Function and Diabetes Mellitus” (Amarin Pharmaceuticals Ireland Limited, priority 2018, published 2023)

Test: Essential fatty acids in plasma and RBC by gas chromatography, 6-week AAMI study
Format: in vivo, human
Procedure: Blood samples (10 mL) were collected at Visit 1 (screening) and at Visits 4, 5, and 6. Analysis was performed by MSR Lipid Analysis, Scottish Crop Research Institute, Dundee, UK. The screening sample acted as baseline for the EFA measurements. Lipid was extracted from plasma, serum, and RBC suspensions and converted into fatty acid methyl esters which were analyzed by gas chromatography to give fatty acid profiles as micrograms fatty acid per gram of sample (mFA/g) and normalized area percent.
RBC and plasma EFA data were collected at baseline, Day 14, 28, and 42 and summarized by visit for each treatment group. Change from baseline and percent change from baseline were also summarized. ANCOVA comparison of E-EPA dose groups and E-EPA versus placebo was performed.
Notable changes for these parameters occurred in the E-EPA treatment groups at Days 14, 28, and 42 compared to placebo.

With `CC/C=C\C/C=C\C/C=C\C/C=C\C/C=C\CCCC(=O)OCC` [E-EPA, ethyl eicosapentaenoate] the “AA Plasma Mean change from Baseline” value (1 g daily, Day 14) was -9.7 µg/g, the “AA RBC Mean change from Baseline” value (1 g daily, Day 14) was -8.1 µg/g and the “DGLA Plasma Mean change from Baseline” value (1 g daily, Day 14) was -10.4 µg/g. The “DGLA RBC Mean change from Baseline” value (1 g daily, Day 14) was -2.7 µg/g, the “DHA Plasma Mean change from Baseline” value (1 g daily, Day 14) was -6.4 µg/g and the “DHA RBC Mean change from Baseline” value (1 g daily, Day 14) was -4.6 µg/g. The “DPAn-3 Plasma Mean change from Baseline” value (1 g daily, Day 14) was 7.5 µg/g, the “DPAn-3 RBC Mean change from Baseline” value (1 g daily, Day 14) was 0.9 µg/g and the “AA Plasma Mean change from Baseline” value (1 g daily, Day 28) was -11.3 µg/g. For the same compound, the “AA RBC Mean change from Baseline” value (1 g daily, Day 28) was -17.0 µg/g, the “DGLA Plasma Mean change from Baseline” value (1 g daily, Day 28) was -10.6 µg/g and the “DGLA RBC Mean change from Baseline” value (1 g daily, Day 28) was -3.8 µg/g. The “DHA Plasma Mean change from Baseline” value (1 g daily, Day 28) was -6.6 µg/g, the “DHA RBC Mean change from Baseline” value (1 g daily, Day 28) was -6.4 µg/g and the “DPAn-3 Plasma Mean change from Baseline” value (1 g daily, Day 28) was 8.9 µg/g. For the same compound, the “DPAn-3 RBC Mean change from Baseline” value (1 g daily, Day 28) was 3.3 µg/g, the “AA Plasma Mean change from Baseline” value (1 g daily, Day 42) was -8.7 µg/g and the “AA RBC Mean change from Baseline” value (1 g daily, Day 42) was -14.2 µg/g. The “DGLA Plasma Mean change from Baseline” value (1 g daily, Day 42) was -9.4 µg/g, the “DGLA RBC Mean change from Baseline” value (1 g daily, Day 42) was -3.5 µg/g and the “DHA Plasma Mean change from Baseline” value (1 g daily, Day 42) was -5.4 µg/g. For the same compound, the “DHA RBC Mean change from Baseline” value (1 g daily, Day 42) was -7.0 µg/g, the “DPAn-3 Plasma Mean change from Baseline” value (1 g daily, Day 42) was 11.3 µg/g and the “DPAn-3 RBC Mean change from Baseline” value (1 g daily, Day 42) was 6.5 µg/g. For the same compound, the “AA Plasma Baseline Mean” value (1 g daily, baseline) was 202.5 µg/g, the “AA RBC Baseline Mean” value (1 g daily, baseline) was 171.2 µg/g and the “DGLA Plasma Baseline Mean” value (1 g daily, baseline) was 51.2 µg/g. For the same compound, the “DGLA RBC Baseline Mean” value (1 g daily, baseline) was 23.0 µg/g, the “DHA Plasma Baseline Mean” value (1 g daily, baseline) was 73.1 µg/g and the “DHA RBC Baseline Mean” value (1 g daily, baseline) was 66.5 µg/g. For the same compound, the “DPAn-3 Plasma Baseline Mean” value (1 g daily, baseline) was 21.1 µg/g, the “DPAn-3 RBC Baseline Mean” value (1 g daily, baseline) was 34.1 µg/g and the “AA Plasma LS Mean, 1 or 2 g versus 4 g” value (1 g versus 4 g) was 4.2 µg/g. For the same compound, the “AA RBC LS Mean, 1 or 2 g versus 4 g” value (1 g versus 4 g) was 8.4 µg/g, the “DGLA Plasma LS Mean, 1 or 2 g versus 4 g” value (1 g versus 4 g) was 3.7 µg/g and the “DGLA RBC LS Mean, 1 or 2 g versus 4 g” value (1 g versus 4 g) was 1.5 µg/g. For the same compound, the “DHA Plasma LS Mean, 1 or 2 g versus 4 g” value (1 g versus 4 g) was -0.8 µg/g, the “DHA RBC LS Mean, 1 or 2 g versus 4 g” value (1 g versus 4 g) was 1.0 µg/g and the “DPAn-3 Plasma LS Mean, 1 or 2 g versus 4 g” value (1 g versus 4 g) was -15.1 µg/g. For the same compound, the “DPAn-3 RBC LS Mean, 1 or 2 g versus 4 g” value (1 g versus 4 g) was -6.2 µg/g, the “AA Plasma Mean change from Baseline” value (2 g daily, Day 14) was -13.9 µg/g and the “AA RBC Mean change from Baseline” value (2 g daily, Day 14) was -3.1 µg/g. For the same compound, the “DGLA Plasma Mean change from Baseline” value (2 g daily, Day 14) was -14.1 µg/g, the “DGLA RBC Mean change from Baseline” value (2 g daily, Day 14) was -2.6 µg/g and the “DHA Plasma Mean change from Baseline” value (2 g daily, Day 14) was -5.4 µg/g. For the same compound, the “DHA RBC Mean change from Baseline” value (2 g daily, Day 14) was -2.0 µg/g, the “DPAn-3 Plasma Mean change from Baseline” value (2 g daily, Day 14) was 17.4 µg/g and the “DPAn-3 RBC Mean change from Baseline” value (2 g daily, Day 14) was 5.6 µg/g. The “AA Plasma Mean change from Baseline” value (2 g daily, Day 28) was 21.6 µg/g, the “AA RBC Mean change from Baseline” value (2 g daily, Day 28) was -14.1 µg/g and the “DGLA Plasma Mean change from Baseline” value (2 g daily, Day 28) was -16.2 µg/g. The “DGLA RBC Mean change from Baseline” value (2 g daily, Day 28) was -4.5 µg/g, the “DHA Plasma Mean change from Baseline” value (2 g daily, Day 28) was -8.1 µg/g and the “DHA RBC Mean change from Baseline” value (2 g daily, Day 28) was -6.2 µg/g. For the same compound, the “DPAn-3 Plasma Mean change from Baseline” value (2 g daily, Day 28) was 19.4 µg/g, the “DPAn-3 RBC Mean change from Baseline” value (2 g daily, Day 28) was 9.4 µg/g and the “AA Plasma Mean change from Baseline” value (2 g daily, Day 42) was -27.3 µg/g. For the same compound, the “AA RBC Mean change from Baseline” value (2 g daily, Day 42) was -18.8 µg/g, the “DGLA Plasma Mean change from Baseline” value (2 g daily, Day 42) was -17.3 µg/g and the “DGLA RBC Mean change from Baseline” value (2 g daily, Day 42) was -5.3 µg/g. The “DHA Plasma Mean change from Baseline” value (2 g daily, Day 42) was -6.0 µg/g, the “DHA RBC Mean change from Baseline” value (2 g daily, Day 42) was -6.3 µg/g and the “DPAn-3 Plasma Mean change from Baseline” value (2 g daily, Day 42) was 19.3 µg/g. For the same compound, the “DPAn-3 RBC Mean change from Baseline” value (2 g daily, Day 42) was 13.2 µg/g, the “AA Plasma Baseline Mean” value (2 g daily, baseline) was 227.3 µg/g and the “AA RBC Baseline Mean” value (2 g daily, baseline) was 172.8 µg/g. For the same compound, the “DGLA Plasma Baseline Mean” value (2 g daily, baseline) was 53.5 µg/g, the “DGLA RBC Baseline Mean” value (2 g daily, baseline) was 23.0 µg/g and the “DHA Plasma Baseline Mean” value (2 g daily, baseline) was 75.1 µg/g. For the same compound, the “DHA RBC Baseline Mean” value (2 g daily, baseline) was 64.8 µg/g, the “DPAn-3 Plasma Baseline Mean” value (2 g daily, baseline) was 19.7 µg/g and the “DPAn-3 RBC Baseline Mean” value (2 g daily, baseline) was 33.2 µg/g. The “AA Plasma LS Mean, 1 or 2 g versus 4 g” value (2 g versus 4 g) was 15.6 µg/g, the “AA RBC LS Mean, 1 or 2 g versus 4 g” value (2 g versus 4 g) was 9.8 µg/g and the “DGLA Plasma LS Mean, 1 or 2 g versus 4 g” value (2 g versus 4 g) was 2.5 µg/g. The “DGLA RBC LS Mean, 1 or 2 g versus 4 g” value (2 g versus 4 g) was 1.5 µg/g, the “DHA Plasma LS Mean, 1 or 2 g versus 4 g” value (2 g versus 4 g) was 1.5 µg/g and the “DHA RBC LS Mean, 1 or 2 g versus 4 g” value (2 g versus 4 g) was 1.0 µg/g. The “DPAn-3 Plasma LS Mean, 1 or 2 g versus 4 g” value (2 g versus 4 g) was -9.5 µg/g, the “DPAn-3 RBC LS Mean, 1 or 2 g versus 4 g” value (2 g versus 4 g) was -2.5 µg/g and the “AA Plasma Mean (SD) change from Baseline” value (4 g daily, Day 14) was −27.2 (28.89) μg/g. For the same compound, the “AA RBC Mean (SD) change from Baseline” value (4 g daily, Day 14) was −15.7 (26.76) μg/g, the “DGLA Plasma Mean change from Baseline” value (4 g daily, Day 14) was -22.9 µg/g and the “DGLA RBC Mean change from Baseline” value (4 g daily, Day 14) was -5.3 µg/g. The “DHA Plasma Mean change from Baseline” value (4 g daily, Day 14) was -10.3 µg/g, the “DHA RBC Mean change from Baseline” value (4 g daily, Day 14) was -6.9 µg/g and the “DPAn-3 Plasma Mean change from Baseline” value (4 g daily, Day 14) was 24.5 µg/g. For the same compound, the “DPAn-3 RBC Mean change from Baseline” value (4 g daily, Day 14) was 5.4 µg/g, the “AA Plasma Mean (SD) change from Baseline” value (4 g daily, Day 28) was −43.7 (32.24) μg/g and the “AA RBC Mean (SD) change from Baseline” value (4 g daily, Day 28) was −22.8 (29.56) μg/g. For the same compound, the “DGLA Plasma Mean change from Baseline” value (4 g daily, Day 28) was -24.2 µg/g, the “DGLA RBC Mean change from Baseline” value (4 g daily, Day 28) was -7.1 µg/g and the “DHA Plasma Mean change from Baseline” value (4 g daily, Day 28) was -13.5 µg/g. The “DHA RBC Mean change from Baseline” value (4 g daily, Day 28) was -8.7 µg/g, the “DPAn-3 Plasma Mean change from Baseline” value (4 g daily, Day 28) was 29.7 µg/g and the “DPAn-3 RBC Mean change from Baseline” value (4 g daily, Day 28) was 12.4 µg/g. The “AA Plasma Mean (SD) change from Baseline” value (4 g daily, Day 42) was −48.3 (22.20) μg/g, the “AA RBC Mean (SD) change from Baseline” value (4 g daily, Day 42) was −34.4 (31.44) μg/g and the “DGLA Plasma Mean change from Baseline” value (4 g daily, Day 42) was -22.5 µg/g. For the same compound, the “DGLA RBC Mean change from Baseline” value (4 g daily, Day 42) was -8.0 µg/g, the “DHA Plasma Mean change from Baseline” value (4 g daily, Day 42) was -13.8 µg/g and the “DHA RBC Mean change from Baseline” value (4 g daily, Day 42) was -13.8 µg/g. The “DPAn-3 Plasma Mean change from Baseline” value (4 g daily, Day 42) was 32.0 µg/g, the “DPAn-3 RBC Mean change from Baseline” value (4 g daily, Day 42) was 16.2 µg/g and the “AA Plasma Baseline Mean (SD)” value (4 g daily, baseline) was 220.9 (42.80) μg/g. The “AA RBC Baseline Mean (SD)” value (4 g daily, baseline) was 171.0 (25.17) μg/g, the “DGLA Plasma Baseline Mean” value (4 g daily, baseline) was 57.1 µg/g and the “DGLA RBC Baseline Mean” value (4 g daily, baseline) was 24.0 µg/g. The “DHA Plasma Baseline Mean” value (4 g daily, baseline) was 78.8 µg/g, the “DHA RBC Baseline Mean” value (4 g daily, baseline) was 68.3 µg/g and the “DPAn-3 Plasma Baseline Mean” value (4 g daily, baseline) was 21.7 µg/g. The “DPAn-3 RBC Baseline Mean” value (4 g daily, baseline) was 34.5 µg/g.
